According to ChEMBL document CHEMBL2029277, “Discovery of XL413, a potent and selective CDC7 inhibitor” (Bioorg Med Chem Lett, 2012):
pEC50, pIC50: −log10 of the molar value.

Experiments:
[1] = system: Mus musculus; assay: Toxicity in athymic nude mouse bearing human Caco2 cells assessed as decrease in body weight at 100 mg/kg, po Q2D administered for 14 days; format: organism-based, Caco-2; design: dose 100 mg/kg, route oral; scale not given: the % may be the effect or the level left; settings: in vivo, 336 h
[2] = system: Caco-2; assay: Induction of apoptosis in human Caco2 cells assessed as increase in caspase 3/7 activity; format: functional, cell-based
[3] = biological target: Cytochrome P450 2C9 (Homo sapiens, UniProt P11712); assay: Inhibition of CYP2C9; format: ADME
[4] = system: Caco-2; assay: Antitumor activity against human Caco2 cells xenografted in athymic nude mouse assessed as tumor growth inhibition at 3 mg/kg, po QD administered for 14 days; format: functional; settings: Caco-2, 336 h, read-out: GI
[5] = Plasma concentration in athymic nude mouse bearing human Caco2 cells at 100 mg/kg, po measured after 4 hrs; format: ADME, organism-based, Caco-2; design: dose 100 mg/kg, route oral
[6] = biological target: Cytochrome P450 2C19 (Homo sapiens, UniProt P33261); assay: Inhibition of CYP2C19; format: ADME
[7] = Oral bioavailability in rat at 3 mg/kg; format: ADME, organism-based; settings: in vivo
[8] = system: Caco-2; assay: Antiproliferative activity against human Caco2 cells assessed as decrease in cell viability after 3 days by Cell Titer-Glo assay; format: functional, cell-based; settings: Caco-2, 72 h
[9] = Drug uptake in tumor of Caco2 cells xenografted athymic nude mouse at 3 mg/kg, po measured after 4 hrs; format: ADME, organism-based, Neoplasm, Caco-2; design: dose 3 mg/kg, route oral; settings: read-out: Drug uptake
[10] = Clearance in rat; format: ADME, organism-based; settings: in vivo
[11] = system: Mus musculus; assay: Toxicity in athymic nude mouse bearing human Caco2 cells assessed as decrease in body weight at 10 mg/kg, po QD administered for 14 days; format: organism-based, Caco-2; design: dose 10 mg/kg, route oral; scale not given: the % may be the effect or the level left; settings: in vivo, 336 h
[12] = biological target: Cytochrome P450 2D6 (Homo sapiens, UniProt P10635); assay: Inhibition of CYP2D6; format: ADME
[13] = Cmax in rat at 3 mg/kg, po; format: ADME, organism-based; design: dose 3 mg/kg, route oral; settings: in vivo
[14] = system: Mus musculus; assay: Inhibition of CDC7-mediated MCM2 phosphorylation at Ser40/41 in human Caco2 cells xenografted in athymic nude mouse at 3 mg/kg, po after 4 hrs by Western blot analysis; format: functional; settings: Caco-2, 4 h
[15] = system: Caco-2; assay: Antitumor activity against human Caco2 cells xenografted in athymic nude mouse assessed as tumor growth inhibition at 30 mg/kg, po BID administered for 14 days; format: functional; settings: Caco-2, 336 h, read-out: GI
[16] = system: Caco-2; assay: Antitumor activity against human Caco2 cells xenografted in athymic nude mouse assessed as tumor growth inhibition at 100 mg/kg, po Q2D administered for 14 days; format: functional; settings: Caco-2, 336 h, read-out: GI
[17] = Plasma concentration in athymic nude mouse bearing human Caco2 cells at 10 mg/kg, po measured after 4 hrs; format: ADME, organism-based, Caco-2; design: dose 10 mg/kg, route oral
[18] = Plasma concentration in mouse at 100 mg/kg, po measured after 1 hr; format: ADME, organism-based; design: dose 100 mg/kg, route oral
[19] = Plasma concentration in mouse at 100 mg/kg, po measured after 4 hrs; format: ADME, organism-based; design: dose 100 mg/kg, route oral
[20] = biological target: T1, Cell division cycle 7-related protein kinase (Homo sapiens, UniProt O00311); assay: Inhibition of CDC7 in human Caco2 cells assessed as inhibition of MCM2 phosphorylation at Ser53 after 4 hrs; format: cell-based, Caco-2
[21] = biological target: T1, Cell division cycle 7-related protein kinase; assay: Inhibition of N-terminus Myc-tagged human CDC7 expressed in Escherichia coli by chemiluminescence assay in presence of ATP
[22] = system: Mus musculus; assay: Toxicity in athymic nude mouse bearing human Caco2 cells assessed as decrease in body weight at 30 mg/kg, po BID administered for 14 days; format: organism-based, Caco-2; design: dose 30 mg/kg, route oral; scale not given: the % may be the effect or the level left; settings: in vivo, 336 h
[23] = Drug uptake in tumor of Caco2 cells xenografted athymic nude mouse at 30 mg/kg, po measured after 4 hrs; format: ADME, organism-based, Neoplasm, Caco-2; design: dose 30 mg/kg, route oral; settings: read-out: Drug uptake
[24] = Plasma concentration in athymic nude mouse bearing human Caco2 cells at 30 mg/kg, po measured after 4 hrs; format: ADME, organism-based, Caco-2; design: dose 30 mg/kg, route oral
[25] = biological target: T1, Cell division cycle 7-related protein kinase; assay: Inhibition of CDC7 in human MDA-MB-231T cells assessed as inhibition of MCM2 phosphorylation at Ser53 after 4 hrs; format: cell-based
[26] = system: Caco-2; assay: Antiproliferative activity against human Caco2 cells after 3 days by BrdU incorporation assay; format: functional, cell-based; settings: Caco-2, 72 h
[27] = system: Caco-2; assay: Antitumor activity against human Caco2 cells xenografted in athymic nude mouse assessed as tumor growth inhibition at 30 mg/kg, po QD administered for 14 days; format: functional; settings: Caco-2, 336 h, read-out: GI
[28] = Plasma concentration in athymic nude mouse bearing human Caco2 cells at 3 mg/kg, po measured after 4 hrs; format: ADME, organism-based, Caco-2; design: dose 3 mg/kg, route oral
[29] = biological target: Serine/threonine-protein kinase pim-1 (Homo sapiens, UniProt P11309); assay: Inhibition of N-terminus His-tagged human PIM1 expressed in Escherichia coli using AKRRRLSA as substrate after 1 to 2 hrs by chemiluminescence assay
[30] = Volume of distribution at steady state in rat; format: ADME, organism-based; settings: in vivo, read-out: Vdss
[31] = AUC in rat at 3 mg/kg, po; format: ADME, organism-based; design: dose 3 mg/kg, route oral; settings: plasma
[32] = biological target: T2, Cytochrome P450 1A2 (Homo sapiens, UniProt P05177); assay: Inhibition of CYP1A2; format: ADME
T2 sequence (P05177 whole entry): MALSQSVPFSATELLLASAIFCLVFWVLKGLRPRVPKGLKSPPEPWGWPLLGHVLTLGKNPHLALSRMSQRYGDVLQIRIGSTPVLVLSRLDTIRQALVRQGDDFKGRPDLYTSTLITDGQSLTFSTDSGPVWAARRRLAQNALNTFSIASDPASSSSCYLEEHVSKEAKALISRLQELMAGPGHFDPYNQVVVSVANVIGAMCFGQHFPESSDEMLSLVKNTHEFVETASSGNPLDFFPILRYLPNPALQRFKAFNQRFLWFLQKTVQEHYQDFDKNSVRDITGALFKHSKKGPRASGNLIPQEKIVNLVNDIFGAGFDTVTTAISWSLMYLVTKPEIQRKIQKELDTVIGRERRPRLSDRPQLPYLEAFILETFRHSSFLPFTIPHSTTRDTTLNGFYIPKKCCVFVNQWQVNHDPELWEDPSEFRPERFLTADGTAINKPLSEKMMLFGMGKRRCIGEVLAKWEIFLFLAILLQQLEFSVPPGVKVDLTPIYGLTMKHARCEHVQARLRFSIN

[33] = system: Caco-2; assay: Antiproliferative activity against human Caco2 cells assessed as inhibition of anchorage-independent growth in soft agar; format: functional, cell-based
[34] = Half life in rat; format: ADME, organism-based; settings: in vivo
[35] = system: Caco-2; assay: Antitumor activity against human Caco2 cells xenografted in athymic nude mouse assessed as tumor growth inhibition at 10 mg/kg, po QD administered for 14 days; format: functional; settings: Caco-2, 336 h, read-out: GI
[36] = system: Mus musculus; assay: Toxicity in athymic nude mouse bearing human Caco2 cells assessed as decrease in body weight at 3 mg/kg, po QD administered for 14 days; format: organism-based, Caco-2; design: dose 3 mg/kg, route oral; scale not given: the % may be the effect or the level left; settings: in vivo, 336 h
[37] = system: Caco-2; assay: Antitumor activity against human Caco2 cells xenografted in athymic nude mouse assessed as tumor regression at 30 mg/kg, po BID administered for 14 days; format: functional
[38] = Drug uptake in tumor of Caco2 cells xenografted athymic nude mouse at 100 mg/kg, po measured after 4 hrs; format: ADME, organism-based, Neoplasm, Caco-2; design: dose 100 mg/kg, route oral; settings: read-out: Drug uptake
[39] = biological target: Cytochrome P450 3A4 (Homo sapiens, UniProt P08684); assay: Inhibition of CYP3A4; format: ADME
[40] = biological target: Casein kinase II alpha/beta (Homo sapiens, UniProt P68400); assay: Inhibition of human tertrameric CK2alphabeta holoenzyme using casein as substrate after 1 to 2 hrs by chemiluminescence assay in presence of 2 uM ATP; format: protein-complex assay
[41] = system: Mus musculus; assay: Toxicity in athymic nude mouse bearing human Caco2 cells assessed as decrease in body weight at 100 mg/kg, po QD administered for 14 days; format: organism-based, Caco-2; design: dose 100 mg/kg, route oral; scale not given: the % may be the effect or the level left; settings: in vivo, 336 h
[42] = Drug uptake in tumor of Caco2 cells xenografted athymic nude mouse at 10 mg/kg, po measured after 4 hrs; format: ADME, organism-based, Neoplasm, Caco-2; design: dose 10 mg/kg, route oral; settings: read-out: Drug uptake
[43] = system: Caco-2; assay: Antitumor activity against human Caco2 cells xenografted in athymic nude mouse assessed as tumor growth inhibition at 100 mg/kg, po QD administered for 14 days; format: functional; settings: Caco-2, 336 h, read-out: GI
[44] = system: Caco-2; assay: Antitumor activity against human Caco2 cells xenografted in athymic nude mouse assessed as tumor regression at 100 mg/kg, po QD administered for 14 days; format: functional
[45] = system: Caco-2; assay: Antitumor activity against human Caco2 cells xenografted in athymic nude mouse assessed as tumor regression at 100 mg/kg, po Q2D administered for 14 days; format: functional
[46] = system: Mus musculus; assay: Inhibition of CDC7-mediated MCM2 phosphorylation at Ser40/41 in human Caco2 cells xenografted in po dosed athymic nude mouse by after 4 hrs Western blot analysis; format: functional; settings: Caco-2, po
[47] = system: Mus musculus; assay: Toxicity in athymic nude mouse bearing human Caco2 cells assessed as decrease in body weight at 30 mg/kg, po QD administered for 14 days; format: organism-based, Caco-2; design: dose 30 mg/kg, route oral; scale not given: the % may be the effect or the level left; settings: in vivo, 336 h

T1 sequence (O00311 whole entry): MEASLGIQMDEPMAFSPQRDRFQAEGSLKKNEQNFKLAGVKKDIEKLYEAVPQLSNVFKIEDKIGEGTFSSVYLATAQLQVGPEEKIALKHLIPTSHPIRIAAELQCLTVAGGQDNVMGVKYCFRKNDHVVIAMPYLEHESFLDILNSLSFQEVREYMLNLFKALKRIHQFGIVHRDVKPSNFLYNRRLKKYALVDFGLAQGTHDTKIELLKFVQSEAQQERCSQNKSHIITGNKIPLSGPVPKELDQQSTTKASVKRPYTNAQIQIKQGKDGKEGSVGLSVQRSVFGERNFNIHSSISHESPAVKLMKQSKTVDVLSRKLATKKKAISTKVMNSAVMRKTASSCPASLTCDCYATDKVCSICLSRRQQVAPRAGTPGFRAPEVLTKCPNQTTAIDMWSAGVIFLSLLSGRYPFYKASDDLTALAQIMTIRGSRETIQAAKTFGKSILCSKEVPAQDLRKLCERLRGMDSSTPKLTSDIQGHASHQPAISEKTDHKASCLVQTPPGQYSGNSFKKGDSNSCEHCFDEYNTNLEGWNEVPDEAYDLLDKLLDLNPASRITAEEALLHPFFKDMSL
Chain of Cytochrome P450 2D6 (P10635 whole entry): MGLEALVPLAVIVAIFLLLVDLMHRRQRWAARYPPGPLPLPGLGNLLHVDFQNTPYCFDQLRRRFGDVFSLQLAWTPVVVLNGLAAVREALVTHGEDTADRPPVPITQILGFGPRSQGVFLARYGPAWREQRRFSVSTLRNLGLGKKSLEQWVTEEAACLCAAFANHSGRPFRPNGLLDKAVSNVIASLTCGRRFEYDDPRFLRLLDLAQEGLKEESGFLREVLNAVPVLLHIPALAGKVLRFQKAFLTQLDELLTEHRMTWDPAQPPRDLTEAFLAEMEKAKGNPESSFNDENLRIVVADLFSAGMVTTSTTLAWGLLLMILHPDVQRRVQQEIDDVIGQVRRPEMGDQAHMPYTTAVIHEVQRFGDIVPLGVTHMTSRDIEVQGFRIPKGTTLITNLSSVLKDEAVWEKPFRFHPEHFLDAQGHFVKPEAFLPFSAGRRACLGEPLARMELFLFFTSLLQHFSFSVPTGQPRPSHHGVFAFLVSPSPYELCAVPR
Chain of Cytochrome P450 2C19 (P33261 whole entry): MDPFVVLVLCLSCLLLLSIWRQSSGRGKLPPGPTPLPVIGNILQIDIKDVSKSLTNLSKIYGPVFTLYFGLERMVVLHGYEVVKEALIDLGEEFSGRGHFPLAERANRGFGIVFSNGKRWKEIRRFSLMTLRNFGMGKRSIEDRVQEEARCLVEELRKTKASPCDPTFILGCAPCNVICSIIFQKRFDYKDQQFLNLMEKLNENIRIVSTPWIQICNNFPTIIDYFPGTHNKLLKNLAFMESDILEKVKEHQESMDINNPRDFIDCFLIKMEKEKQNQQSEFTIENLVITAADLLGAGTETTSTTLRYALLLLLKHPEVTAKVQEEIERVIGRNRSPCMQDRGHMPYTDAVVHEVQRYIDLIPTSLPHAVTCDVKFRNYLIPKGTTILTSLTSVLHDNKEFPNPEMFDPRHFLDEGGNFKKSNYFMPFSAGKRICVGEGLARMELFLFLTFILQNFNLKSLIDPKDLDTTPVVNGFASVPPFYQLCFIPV
Chain of Casein kinase II alpha/beta (P67870 whole entry): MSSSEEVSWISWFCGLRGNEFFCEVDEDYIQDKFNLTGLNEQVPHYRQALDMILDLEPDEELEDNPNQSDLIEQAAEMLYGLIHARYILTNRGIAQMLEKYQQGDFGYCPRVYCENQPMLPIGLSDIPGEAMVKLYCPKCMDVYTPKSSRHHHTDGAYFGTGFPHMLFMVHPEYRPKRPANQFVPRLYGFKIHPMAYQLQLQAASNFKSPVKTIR
Chain of Casein kinase II alpha/beta (P68400 whole entry): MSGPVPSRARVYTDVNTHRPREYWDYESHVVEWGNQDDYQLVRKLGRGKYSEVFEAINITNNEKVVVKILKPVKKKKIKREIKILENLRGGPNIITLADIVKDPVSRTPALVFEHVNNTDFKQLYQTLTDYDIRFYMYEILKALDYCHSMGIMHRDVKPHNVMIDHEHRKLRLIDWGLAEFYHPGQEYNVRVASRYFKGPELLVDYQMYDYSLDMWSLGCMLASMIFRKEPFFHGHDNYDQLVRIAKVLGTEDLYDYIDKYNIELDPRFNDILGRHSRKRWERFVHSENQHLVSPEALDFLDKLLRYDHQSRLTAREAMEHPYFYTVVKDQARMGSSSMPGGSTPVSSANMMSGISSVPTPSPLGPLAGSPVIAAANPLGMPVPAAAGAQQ
Chain of Serine/threonine-protein kinase pim-1 (P11309 whole entry): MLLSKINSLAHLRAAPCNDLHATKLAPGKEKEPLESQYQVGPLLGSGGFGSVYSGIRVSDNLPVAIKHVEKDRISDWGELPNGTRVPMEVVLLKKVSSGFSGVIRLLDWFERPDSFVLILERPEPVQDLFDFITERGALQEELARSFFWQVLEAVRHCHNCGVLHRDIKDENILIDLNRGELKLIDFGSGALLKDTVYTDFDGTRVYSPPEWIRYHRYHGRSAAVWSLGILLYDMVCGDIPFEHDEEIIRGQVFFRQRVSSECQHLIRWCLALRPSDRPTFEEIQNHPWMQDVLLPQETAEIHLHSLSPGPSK
Chain of Cytochrome P450 3A4 (P08684 whole entry): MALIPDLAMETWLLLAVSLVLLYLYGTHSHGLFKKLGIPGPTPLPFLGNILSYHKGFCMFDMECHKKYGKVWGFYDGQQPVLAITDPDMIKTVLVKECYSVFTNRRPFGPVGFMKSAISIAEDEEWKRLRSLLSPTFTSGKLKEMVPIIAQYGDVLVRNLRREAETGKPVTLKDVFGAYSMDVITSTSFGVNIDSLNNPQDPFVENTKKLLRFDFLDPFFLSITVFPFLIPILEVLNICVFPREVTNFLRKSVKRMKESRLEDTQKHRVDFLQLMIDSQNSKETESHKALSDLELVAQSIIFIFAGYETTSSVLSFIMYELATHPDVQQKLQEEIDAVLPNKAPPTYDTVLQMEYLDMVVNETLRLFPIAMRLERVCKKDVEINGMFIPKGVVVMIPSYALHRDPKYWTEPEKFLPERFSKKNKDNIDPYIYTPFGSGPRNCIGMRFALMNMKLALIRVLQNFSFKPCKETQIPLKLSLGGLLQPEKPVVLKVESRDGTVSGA
Chain of Cytochrome P450 2C9 (P11712 whole entry): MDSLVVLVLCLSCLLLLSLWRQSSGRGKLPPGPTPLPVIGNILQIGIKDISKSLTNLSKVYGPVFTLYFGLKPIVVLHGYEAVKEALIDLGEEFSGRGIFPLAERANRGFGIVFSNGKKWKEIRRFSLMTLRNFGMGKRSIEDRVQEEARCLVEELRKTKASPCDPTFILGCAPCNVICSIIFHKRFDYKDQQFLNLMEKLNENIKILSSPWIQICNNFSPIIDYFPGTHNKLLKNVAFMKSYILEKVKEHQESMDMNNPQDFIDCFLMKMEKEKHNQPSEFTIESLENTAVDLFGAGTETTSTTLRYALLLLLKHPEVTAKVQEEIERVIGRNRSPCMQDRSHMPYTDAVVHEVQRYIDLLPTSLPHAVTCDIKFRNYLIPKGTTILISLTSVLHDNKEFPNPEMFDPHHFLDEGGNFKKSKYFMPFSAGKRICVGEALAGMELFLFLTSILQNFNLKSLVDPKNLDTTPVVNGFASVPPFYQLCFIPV

Structure (SMILES): O=c1[nH]c([C@@H]2CCCN2)nc2c1oc1ccc(Cl)cc12
- Activity [1]: 4.5%
- pEC50 [2]: 5.64
- pIC50 [3]: < 4.30
- inhibition in vivo at 3 mg/kg [4]: 8.7%
- concentration at 4 h [5]: 186 µM
- pIC50 [6]: < 4.30
- bioavailability [7]: 95%
- pIC50 [8]: 5.67
- concentration at 4 h [9]: 3.2 µM
- clearance [10]: 1.95 mL/min/kg
- Activity [11]: 3.4%
- pIC50 [12]: < 4.30
- Cmax [13]: 8.61 µM
- inhibition in vivo at 3 mg/kg [14]: 70%
- inhibition in vivo at 30 mg/kg [15]: > 100%
- inhibition in vivo at 100 mg/kg [16]: > 100%
- concentration at 4 h [17]: 40.1 µM
- concentration at 1 h [18]: 141 µM
- concentration at 4 h [19]: 81 µM
- pIC50 [20]: 6.85
- pIC50 [21]: 8.47
- Activity [22]: 6.4%
- concentration at 4 h [23]: 32.1 µM
- concentration at 4 h [24]: 82.2 µM
- pIC50 [25]: 6.93
- pIC50 [26]: 5.57
- inhibition in vivo at 30 mg/kg [27]: 83%
- concentration at 4 h [28]: 11 µM
- pIC50 [29]: 7.38
- Vd [30]: 0.55 L/kg
- AUC [31]: 75 µM·h
- pIC50 [32]: 5.16
- pIC50 [33]: 6.15
- half-life [34]: 2.32 h
- inhibition in vivo at 10 mg/kg [35]: 36%
- Activity [36]: 0.5%
- Activity [37]: 32%
- concentration at 4 h [38]: 71.4 µM
- pIC50 [39]: < 4.30
- pIC50 [40]: 6.67
- Activity [41]: 4.7%
- concentration at 4 h [42]: 13.1 µM
- inhibition in vivo at 100 mg/kg [43]: > 100%
- Activity [44]: 70%
- Activity [45]: 21%
- ED50 [46]: < 3 mg/kg
- Activity [47]: 8.3%
